Entries after “also recorded” stand apart in the source; their conditions may differ. Where two headings read alike, the source gives them in different places.
Key:
[1] = molecular target: T1, FGF14:Nav1.6 C-tail complex (Homo sapiens, UniProt Q92915+Q9UQD0); test: Split-luciferase complementation assay (LCA) in Clone V double stable HEK293 cells; type: cell-based; conditions: for Split Luciferase Assay % Lum Set 1 / Split Luciferase Assay Z-score Set 1: biological replicate Set 1; for Split Luciferase Assay % Lum Set 1 / Split Luciferase Assay %Lum Set 2: normalized to on-plate 0.3% DMSO controls (n=16 per plate); for Split Luciferase Assay %Lum Set 2 / Split Luciferase Assay Z-score Set 2: biological replicate Set 2; for Split Luciferase Assay Z-score Set 1 / Split Luciferase Assay Z-score Set 2: normalized to on-plate 0.3% DMSO controls; for Split Luciferase Assay %Lum Avg: average of Set 1 and Set 2, normalized to 0.3% DMSO controls; for Z-score (LCA primary screening): 30 µM, average of primary screening (n = 2), vs on-plate 0.3% DMSO
T1 construct: polymerase chain reaction (PCR) amplification of the FGF14 open reading frame (nt 1–855); C-terminal fragment of Nav1.6 (amino acids 1763–1976) fused with CD4ΔC-tail (amino acids 1–395); expressed in transfected cells

[2] = molecular target: full-length P. pyralis luciferase (Photinus pyralis, UniProt P08659, K549A/L550V/N119G/N50D/S548I); type: cell-based; conditions: CC_NCI screening, normalized to on-plate 0.3% DMSO controls; for Luciferase Assay % Lum: full-length luciferase counter-screen luminescence; for Luciferase Assay Z-score: full-length luciferase counter-screen
[3] = system: Clone V cells
[4] = CC_NCI screening, LCA luminescence

full-length P. pyralis luciferase, sequence (P08659 whole entry N50D/N119G/S548I/K549A/L550V, looked up): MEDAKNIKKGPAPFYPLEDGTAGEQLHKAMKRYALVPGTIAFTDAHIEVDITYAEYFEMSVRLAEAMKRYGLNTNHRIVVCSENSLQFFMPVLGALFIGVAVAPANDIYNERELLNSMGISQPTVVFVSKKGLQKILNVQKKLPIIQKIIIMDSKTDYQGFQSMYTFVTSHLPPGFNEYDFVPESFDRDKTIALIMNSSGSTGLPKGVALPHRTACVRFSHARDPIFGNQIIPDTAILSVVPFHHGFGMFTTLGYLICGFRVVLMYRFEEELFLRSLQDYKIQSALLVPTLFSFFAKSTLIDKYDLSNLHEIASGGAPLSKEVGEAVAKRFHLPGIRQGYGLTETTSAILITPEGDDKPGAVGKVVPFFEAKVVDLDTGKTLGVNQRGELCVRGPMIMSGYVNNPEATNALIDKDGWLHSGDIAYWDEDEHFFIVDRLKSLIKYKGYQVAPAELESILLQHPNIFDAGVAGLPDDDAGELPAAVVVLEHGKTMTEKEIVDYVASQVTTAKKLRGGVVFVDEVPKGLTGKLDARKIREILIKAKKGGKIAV
T1 sequence (Q92915 1-252 isoform Q92915-2): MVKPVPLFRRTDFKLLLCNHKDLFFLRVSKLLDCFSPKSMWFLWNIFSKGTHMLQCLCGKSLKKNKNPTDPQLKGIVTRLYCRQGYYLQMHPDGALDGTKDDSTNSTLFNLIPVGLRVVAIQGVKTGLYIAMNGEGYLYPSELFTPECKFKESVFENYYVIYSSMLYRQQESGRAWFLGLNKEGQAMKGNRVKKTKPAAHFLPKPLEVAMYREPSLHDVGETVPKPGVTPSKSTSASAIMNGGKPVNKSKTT
T1 sequence (Q9UQD0 1763-1976 limits assumed): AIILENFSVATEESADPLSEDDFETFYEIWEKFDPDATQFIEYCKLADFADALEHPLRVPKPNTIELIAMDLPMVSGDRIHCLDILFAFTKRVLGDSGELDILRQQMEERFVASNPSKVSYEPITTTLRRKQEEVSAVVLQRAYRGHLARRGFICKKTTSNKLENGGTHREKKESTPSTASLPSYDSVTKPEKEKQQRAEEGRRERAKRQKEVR

Row | Compound | Split Luciferase Assay % Lum Set 1 [1, 4] [%] | Split Luciferase Assay %Lum Set 2 [1, 4] [%] | Split Luciferase Assay Z-score Set 1 ([1]; CC_NCI screening, LCA) | Split Luciferase Assay Z-score Set 2 ([1]; CC_NCI screening, LCA) | Split Luciferase Assay %Lum Avg ([1]; CC_NCI screening) [%] | Luciferase Assay % Lum [2] [%] | Luciferase Assay Z-score [2] | Toxicity Assay % Fluor [3] [%] | Toxicity Assay Z-score [3] | Toxicity Assay % Fluor ([3]; human, 16 h, 30 µM) [%] | Toxicity Assay Z-score ([3]; human, 16 h, 30 µM) | also measured
1 | CCCCCCCCCCCCSc1nc2c([nH]1)c(=O)n(C)c(=O)n2C | 112.30 | 118.60 | 0.99 | 1.51 | 115.45 | 103.16 | 0.40 | 93.89 | -0.85 |  |  | 
2 | Cc1nc(Nc2ncc(C(=O)Nc3c(C)cccc3Cl)s2)cc(N2CCN(CCO)CC2)n1 [DASATINIB] | 38.37 | 65.54 | -4.98 | -2.80 | 51.96 | 82.88 | -2.19 |  |  | 83.83 | -2.26 | 
3 | O=C(CCCCCCC(=O)Nc1ccccc1)NO [VORINOSTAT] |  |  |  |  |  |  |  |  |  |  |  | Split Luciferase Assay Z-score Set 1 ([1]; CC_NCI screening): 0.47; Split Luciferase Assay % Lum Set 1 ([1]; CC_NCI screening): 105.78%; Split Luciferase Assay Z-score Set 2 ([1]; CC_NCI screening): -1.96; Split Luciferase Assay %Lum Set 2 ([1]; CC_NCI screening): 75.94%; Split Luciferase Assay %Lum Avg [1]: 90.86%; Luciferase Assay % Lum (full-length luciferase counter-screen) [2]: 84.44%; Luciferase Assay Z-score (full-length luciferase counter-screen) [2]: -1.99; Toxicity Assay % Fluor (CTB cell viability fluorescence) [3]: 108.87%; Toxicity Assay Z-score (CTB cell viability) [3]: 1.24
4 | CN(C)S(=O)(=O)c1ccc2c(c1)/C(=C/c1cc3c([nH]1)CCCC3)C(=O)N2 [SU 6656] | 128.60 | 106.11 | 2.31 | 0.50 | 117.36 | 101.36 | 0.17 |  |  | 105.95 | 0.83 | 
5 | O=C(Nc1cccc(Nc2ncc(Br)c(NCCc3cnc[nH]3)n2)c1)N1CCCC1 [BX 912, reference compound] | 35.11 | 40.57 | -5.24 | -4.84 | 37.84 | 85.82 | -1.82 | 106.22 | 0.87 |  |  | Z-score (LCA primary screening) ([1]; 384-well): −5.04; dose-response behavior of repurchased compounds ([1]; 10-point dose response 0.25-50 µM, Clone V cells): counter acting activity as a function of dosage; also recorded: act as enhancers at lower concentrations; IMin (% Luminescence) ([1]; antagonists, Clone V cells, 384-well, normalized to DMSO): 37.84 % Luminescence; action toward the FGF14:Nav1.6 C-tail interaction ([1]; dose-dependency validation using fresh compound samples): acted as antagonists; IC50 ([1]; estimated, 8-point dose response 0.25-30 µM, n = 4 per concentration, library compounds, read-out: IC50): 9.23 µM; IC50 ([1]; repurchased compounds, 10-point dose response 0.25-50 µM, n = 8 per concentration, Clone V cells, 384-well, read-out: in-cell IC50): 6.8 µM
6 | N#C/C(=C/c1ccc(O)c(O)c1)C(=O)NCc1ccccc1 [AG 490] | 118.82 | 120.68 | 1.52 | 1.68 | 119.75 | 85.62 | -1.84 | 89.42 | -1.48 |  |  | 
7 | CS(=O)(=O)c1ccc(C(=O)Nc2ccc(Cl)c(-c3ccccn3)c2)c(Cl)c1 [Vismodegib, reference compound] | 175.35 | 147.72 | 6.09 | 3.88 | 161.54 | 90.92 | -1.16 |  |  | 93.24 | -0.95 | Z-score (LCA primary screening) ([1]; 384-well): 4.99; EMax (% Luminescence) ([1]; agonists, Clone V cells, 384-well, normalized to DMSO): 161.54 % Luminescence; EC50 ([1]; estimated, 8-point dose response 0.25-30 µM, n = 4 per concentration, library compounds, read-out: EC50): 1.91 µM
8 | CC(C)C[C@H](NC(=O)[C@H](Cc1ccccc1)NC(=O)c1cnccn1)B(O)O [BORTEZOMIB] | 55.77 | 84.27 | -3.57 | -1.28 | 70.02 | 88.79 | -1.44 |  |  | 89.20 | -1.51 | 

— article PMC6858373 (Scientific Reports, 2019)
